Tests used:
[1] = target: 1b (BK) NS5bΔ21 (Hepatitis C virus genotype 1b (isolate BK) (HCV), UniProt P26663); test: HCV polymerase inhibition assay, genotype 1b; format: biochemical, HCV genotype 1b (BK); settings: 1b (BK) NS5bΔ21, 33P-GTP incorporation; read-out: 1b polymerase IC50 (range class)
Summary of the method: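 NS5bΔ21 (50 nM) in Tris-HCl pH 7.5 with Mg2+/Mn2+, DTT, BSA, 0.5% DMSO, poly(rC) template, GTP at Km and ^33P-GTP; 3-fold compound dilutions. GTP-started reactions stopped with EDTA after 1 h; incorporation read by DEAE filter scintillation counting. IC50 by non-linear regression; 3a enzyme run the same way.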

[2] = tested on: genotype 1b (Con 1) subgenomic replicon cell line; test: HCV replicon assay, genotype 1b (Renilla luciferase); format: cell-based, HCV genotype 1b (Con 1); settings: Hepatitis C virus; genotype 1b replicon, 72 hours, luciferase; read-out: genotype 1b EC50 (range class)
Summary of the method: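 Subgenomic replicon cells expressing Renilla luciferase (1b Con1; 1a and 2a lines by the same method) seeded at 7000 cells/well (5000 for 2a) without G418, exposed to 3-fold compound dilutions for 72 h at 37 °C. Luciferase activity measured; EC50 by non-linear regression.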

Chain of 1b (BK) NS5bΔ21 (P26663 2420-2989): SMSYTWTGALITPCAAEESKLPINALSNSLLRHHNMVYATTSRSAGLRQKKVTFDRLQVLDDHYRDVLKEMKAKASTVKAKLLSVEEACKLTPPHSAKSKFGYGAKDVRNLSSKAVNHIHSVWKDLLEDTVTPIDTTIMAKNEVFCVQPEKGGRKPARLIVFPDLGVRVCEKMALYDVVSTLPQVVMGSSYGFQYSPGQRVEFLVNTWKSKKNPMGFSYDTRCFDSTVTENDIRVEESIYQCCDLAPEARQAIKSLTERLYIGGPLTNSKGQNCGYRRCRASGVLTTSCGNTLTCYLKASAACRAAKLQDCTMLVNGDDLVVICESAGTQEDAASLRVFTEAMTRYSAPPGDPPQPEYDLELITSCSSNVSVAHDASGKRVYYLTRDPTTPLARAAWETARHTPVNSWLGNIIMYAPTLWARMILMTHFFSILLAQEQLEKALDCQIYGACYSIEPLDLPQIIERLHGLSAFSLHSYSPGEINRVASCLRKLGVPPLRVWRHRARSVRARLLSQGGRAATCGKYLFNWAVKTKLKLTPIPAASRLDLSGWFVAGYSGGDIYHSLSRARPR

CNC(=O)c1c2cc(OC)c(N(CCCO)S(C)(=O)=O)cc2nn1-c1ccc(Nc2ccccc2F)cc1 [Compound 126]
IC50 [1]: 1000 to 9990 nM
EC50 [2]: 1000 to 9990 nM

CNC(=O)c1c2cc(C3CC3)c(N(CCOC)S(C)(=O)=O)cc2nn1-c1ccc(Br)cc1 [Compound 232]
IC50 [1]: 1000 to 9990 nM
EC50 [2]: < 990 nM

CNC(=O)c1c2cc(C3CC3)c(N3CCN(C)S3(=O)=O)cc2nn1-c1ccc(Br)cc1 [Compound 104, 2-(4-bromophenyl)-5-cyclopropyl-N-methyl-6-(5-methyl-1,1-dioxido-1,2,5-thiadiazolidin-2-yl)-2H-indazole-3-carboxamide]
IC50 [1]: 10000 to 50000 nM
EC50 [2]: 1000 to 9990 nM

CNC(=O)c1c2cc(C3CC3)c(N(CCCNC(C)=O)S(C)(=O)=O)cc2nn1-c1ccc(NCC(C)C)cc1 [Compound 60, 6-{[3-(acetylamino)propyl](methylsulfonyl)amino}-5-cyclopropyl-N-methyl-2-(4-[(2-methylpropyl)amino]phenyl)-2H-indazole-3-carboxamide]
IC50 [1]: 1000 to 9990 nM
EC50 [2]: 1000 to 9990 nM

CNC(=O)c1c2cc(C3CC3)c(N(C)S(C)(=O)=O)cc2nn1-c1ccc(Cl)cc1 [Compound 237]
IC50 [1]: < 990 nM
EC50 [2]: < 990 nM

CNC(=O)c1c2cc(C3CC3)c(N(CCCF)S(C)(=O)=O)cc2nn1-c1ccc(Cl)cc1 [Compound 57, 2-(4-chlorophenyl)-5-cyclopropyl-6-[3-fluoropropyl(methylsulfonyl)amino]-N-methyl-2H-indazole-3-carboxamide]
IC50 [1]: < 990 nM
EC50 [2]: < 990 nM

CCS(=O)(=O)NC(=O)CCCN(c1cc2nn(-c3ccc(Br)cc3)c(C(=O)NC)c2cc1C1CC1)S(C)(=O)=O [Compound 193]
IC50 [1]: < 990 nM
EC50 [2]: 1000 to 9990 nM

CNC(=O)c1c2cc(C3CC3)c(-c3nccn3C)cc2nn1-c1ccc(F)cc1 [Compound 157]
IC50 [1]: 1000 to 9990 nM
EC50 [2]: 10000 to 50000 nM

CNC(=O)c1c2cc(C3CC3)c(N(C3CCNCC3)S(C)(=O)=O)cc2nn1-c1ccc(Br)cc1 [Compound 107, 2-(4-bromophenyl)-5-cyclopropyl-N-methyl-6-[methylsulfonyl(piperidin-4-yl)-amino]-2H-indazole-3-carboxamide]
IC50 [1]: 1000 to 9990 nM
EC50 [2]: 1000 to 9990 nM

CCNC(=O)CCCN(c1cc2nn(-c3ccc(Br)cc3)c(C(=O)NC)c2cc1C1CC1)S(C)(=O)=O [Compound 184]
IC50 [1]: < 990 nM
EC50 [2]: 1000 to 9990 nM

CNC(=O)c1c2cc(C3CC3)c(N(CCCNC(=O)[C@H]3COCCN3C)S(C)(=O)=O)cc2nn1-c1ccc(Cl)cc1 [Compound 205]
IC50 [1]: < 990 nM
EC50 [2]: < 990 nM

CNC(=O)c1c2cc(C3CC3)c(N(CCCN3CCCC3=O)S(C)(=O)=O)cc2nn1-c1ccc(Br)cc1 [Compound 194]
IC50 [1]: < 990 nM
EC50 [2]: < 990 nM

CNC(=O)CCN(c1cc2nn(-c3ccc(Br)cc3)c(C(=O)NC)c2cc1C1CC1)S(C)(=O)=O [Compound 148]
IC50 [1]: < 990 nM
EC50 [2]: 1000 to 9990 nM

CCN(c1cc2nn(-c3ccc(Nc4ccccc4F)cc3)c(C(=O)NC)c2cc1OC)S(C)(=O)=O [Compound 123]
IC50 [1]: 1000 to 9990 nM
EC50 [2]: < 990 nM

CNC(=O)c1c2cc(C3CC3)c(N(CCC(=O)N(C)C)S(C)(=O)=O)cc2nn1-c1ccc(Br)cc1 [Compound 155]
IC50 [1]: < 990 nM
EC50 [2]: 1000 to 9990 nM

CCN(c1cc2nn(-c3ccc(NCC(C)C)nc3)c(C(=O)NC)c2cc1C1CC1)S(C)(=O)=O [Compound 110, 5-cyclopropyl-6-[ethyl(methylsulfonyl)amino]-2-[6-(isobutylamino)-3-pyridyl]-N-methyl-2H-indazole-3-carboxamide]
IC50 [1]: < 990 nM
EC50 [2]: < 990 nM

CNC(=O)c1c2cc(C3CC3)c(N(C3CCN(S(C)(=O)=O)C3)S(C)(=O)=O)cc2nn1-c1ccc(Br)cc1 (stereo not shown) [Compound 52, 2-(4-bromophenyl)-5-cyclopropyl-N-methyl-6-{(methylsulfonyl)[1-(methylsulfonyl)pyrrolidin-3-yl]amino}-2H-indazole-3-carboxamide]
IC50 [1]: < 990 nM
EC50 [2]: < 990 nM

CNC(=O)c1c2cc(C3CC3)c(N(CCO)S(C)(=O)=O)cc2nn1-c1ccc(Oc2ccc(F)cc2)cc1 [Compound 3, 5-cyclopropyl-2-[4-(4-fluorophenoxy)phenyl]-6-[(2-hydroxyethyl)-(methylsulfonyl)amino]-N-methyl-2H-indazole-3-carboxamide]
IC50 [1]: 1000 to 9990 nM
EC50 [2]: < 990 nM

CNC(=O)c1c2cc(C3CC3)c(N(CCCNC(=O)c3ccccc3C(=O)O)S(C)(=O)=O)cc2nn1-c1ccc(NCC(C)C)cc1 [Compound 146]
IC50 [1]: < 990 nM
EC50 [2]: 1000 to 9990 nM

CNC(=O)c1c2cc(C3CC3)c(N3CCCS3(=O)=O)cc2nn1-c1ccc(Br)cc1 [Compound 128]
IC50 [1]: 1000 to 9990 nM
EC50 [2]: 1000 to 9990 nM

CCN(c1cc2nn(-c3ccc(F)cc3)c(C(=O)NC)c2cc1C1CC1)S(C)(=O)=O [Compound 138]
IC50 [1]: < 990 nM
EC50 [2]: < 990 nM

CNC(=O)c1c2cc(C3CC3)c(N(CC(F)F)S(C)(=O)=O)cc2nn1-c1ccc(Cl)cc1 [Compound 254]
IC50 [1]: < 990 nM
EC50 [2]: < 990 nM

CNC(=O)c1c2cc(C3CC3)c(N(CCO)S(C)(=O)=O)cc2nn1-c1ccc(Nc2ccccc2F)cc1 [Compound 26]
IC50 [1]: < 990 nM
EC50 [2]: < 990 nM

CCNC(=O)CCN(c1cc2nn(-c3ccc(Br)cc3)c(C(=O)NC)c2cc1C1CC1)S(C)(=O)=O [Compound 162]
IC50 [1]: 1000 to 9990 nM
EC50 [2]: 1000 to 9990 nM

CNC(=O)c1c2cc(C3CC3)c(N(CCO)S(C)(=O)=O)cc2nn1-c1ccc(Br)cc1 [Compound 24]
IC50 [1]: < 990 nM
EC50 [2]: < 990 nM

CNC(=O)c1c2cc(C3CC3)c(N(CC3CCOCC3)S(C)(=O)=O)cc2nn1-c1ccc(Cl)cc1 [Compound 249]
IC50 [1]: < 990 nM
EC50 [2]: < 990 nM

CCOC(=O)C(CCCN(c1cc2nn(-c3ccc(Br)cc3)c(C(=O)NC)c2cc1C1CC1)S(C)(=O)=O)C(=O)OCC [Compound 212]
IC50 [1]: < 990 nM
EC50 [2]: < 990 nM

CNC(=O)c1c2cc(C3CC3)c(N(CCCNC(=O)C3CC3)S(C)(=O)=O)cc2nn1-c1ccc(Br)cc1 [Compound 183]
IC50 [1]: < 990 nM
EC50 [2]: < 990 nM

CNC(=O)c1c2cc(C3CC3)c(N(CCCNC(=O)CCC(=O)O)S(C)(=O)=O)cc2nn1-c1ccc(Nc2ccc(F)cc2)cc1 [Compound 58, 4-[(3-{[5-Cyclopropyl-2-{4-[(4-fluorophenyl)amino]phenyl}-3-(methylcarbamoyl)-2H-indazol-6-yl](methylsulfonyl)amino}propyl)amino]-4-oxobutanoic acid]
IC50 [1]: < 990 nM
EC50 [2]: 10000 to 50000 nM

CCN(c1cc2nn(-c3ccc(Br)c(F)c3)c(C(=O)NC)c2cc1C1CC1)S(C)(=O)=O [Compound 236]
IC50 [1]: < 990 nM
EC50 [2]: < 990 nM

CCCNC(=O)CCN(c1cc2nn(-c3ccc(Br)cc3)c(C(=O)NC)c2cc1C1CC1)S(C)(=O)=O [Compound 165]
IC50 [1]: 1000 to 9990 nM
EC50 [2]: 1000 to 9990 nM

C#Cc1cc2c(C(=O)NC)n(-c3ccc(F)cc3)nc2cc1N(CC)S(C)(=O)=O [Compound 77, 6-[Ethyl(methylsulfonyl)amino]-5-ethynyl-2-(4-fluorophenyl)-N-methyl-2H-indazole-3-carboxamide]
IC50 [1]: 10000 to 50000 nM
EC50 [2]: 1000 to 9990 nM

CNC(=O)c1c2cc(C3CC3)c(N3CCCCC3=O)cc2nn1-c1ccc(Nc2ccc(F)cc2)cc1 [Compound 127]
IC50 [1]: 10000 to 50000 nM
EC50 [2]: 1000 to 9990 nM

CNC(=O)c1c2cc(C3CC3)c(N(CCC(=O)NC(C)C)S(C)(=O)=O)cc2nn1-c1ccc(Br)cc1 [Compound 91, 2-(4-bromophenyl)-5-cyclopropyl-N-methyl-6-((methylsulfonyl)[3-oxo-3-(propan-2-ylamino)propyl]amino)-2H-indazole-3-carboxamide]
IC50 [1]: 1000 to 9990 nM
EC50 [2]: 1000 to 9990 nM

CNC(=O)c1c2cc(C3CC3)c(-c3c(C)noc3C)cc2nn1-c1ccc(C)cc1 [Compound 226]
IC50 [1]: 10000 to 50000 nM
EC50 [2]: 1000 to 9990 nM

CCN(c1cc2nn(-c3ccc(F)cc3)c(C(=O)NC)c2cc1-c1csc(C)n1)S(C)(=O)=O [Compound 163]
IC50 [1]: 10000 to 50000 nM
EC50 [2]: 1000 to 9990 nM

CNC(=O)c1c2cc(C3CC3)c(N(CCCO)S(C)(=O)=O)cc2nn1-c1ccc(Oc2ccccc2F)cc1 [Compound 29]
IC50 [1]: < 990 nM
EC50 [2]: < 990 nM

CCN(c1cc2nn(-c3ccc(C)c(F)c3)c(C(=O)NC)c2cc1C1CC1)S(C)(=O)=O [Compound 244]
IC50 [1]: < 990 nM
EC50 [2]: < 990 nM
